Laboratory results reported in patent publication US9308238B2, “Compositions and methods for modulating EMT and uses thereof” (Whitehead Institute for Biomedical Research, priority 2010, dated 2016).

Tests used:
Assay type in all cases: cell-based, human
[1] = system: HMLE^24+ cells; experiment: RT-PCR / immunoblot of EMT markers and EMT-TFs in HMLE^24+ cells
Procedure: (§1) FIGS. 5A-5H. Concomitant stimulation of Wnt and TGF-beta pathways allows HMLE^24+ cells to enter into a mesenchymal and SC-like state. (FIG. 5A) RT-PCR: N-Cadherin, Zeb1 and Zeb2, L32 was loading control, n=3. Prior RNA isolation, HMLE^24+-shGFP or -shSFRP1 (stable knockdown of SFRP1, FIG. 12A) cells were treated for 3 days with daily doses of indicated factors: anti-DKK1 antibody (10 μg/ml), anti-E-Cadherin antibody (1 μg/ml), TGF-beta 1 (5 ng/ml), Wnt5a (250 ng/ml), (FIG. 5B) Brightfield microscopy: images of control, TGF-beta- and iEMT-cocktail treated HMLE^24+ cells after 14 days of treatment as indicated (see also FIG. 12D). (FIG. 5C) RT-PCR: Zeb1, Zeb2, E-Cadherin and N-Cadherin, L32 was loading control, n=3. After 14 day treatment, cells were expanded in absence of further stimulation for 4 passages. […] (FIG. 5G) Lung metastasis: cells expanded for 8 passages after cessation of treatment as described in (C) were transformed with RAS; 1.0×10^5 cells were injected into the mammary fat pads of mice; GFP-labeled metastases on the surface of the lungs were quantified; *control vs. all other groups, p<0.05, n=5 mice/group. […]
Immunoblots. Protein was extracted with RIPA lysis buffer and concentration determined by the Lowry assay (Biorad). […]

[2] = system: Smad transcriptional activity; experiment: Smad luciferase reporter assay (SBE4-luc), HMLE^24+ cells; settings: HMLE^24+ cells treated with TGF-beta (5 ng/ml, 30 min)
Excerpt: (§2) FIGS. 12A-12F. Concomitant stimulation of Wnt and TGF-beta pathways allows HMLE^24+ cells to enter into a mesenchymal and SC-like state. (FIG. 12A) RT-PCR: SFRP1, L32 was loading control, n=3; SFRP1 mRNA levels in HMLE^24+ stably expressing two hairpin-encoding vectors (shSFRP1a and -b) compared cells expressing a control hairpin targeting GFP (shGFP), HMLE^24+-shSFRP1b were used for iEMT experiments. (FIG. 12B) Flow cytometry: Expression of CD44 and CD24 cell-surface markers in HMLE, HMLE^24+-shGFP and -shSFRP1 cells. […] (FIG. 12F) Growth curves: proliferation of indicated cell lines was monitored by the MTS assay for 3 days, 8 passages after cessation of 14 day treatment as described in (D), n=12.
Luciferase assays. […] Lysates were collected 24-48 hr after transfection, and firefly and Renilla luciferase activities were measured with a Dual-Luciferase Reporter System (Promega).

[3] = system: HMLE^24+ cells; experiment: Mammosphere assay, HMLE^24+ cells after 14 day treatment
Procedure: as §1, with “passages. Shown are PBS-treated control HMLE^24+-shGFP and HMLE^24+-shSFRP1 cells, two HMLE^24+-shGFP cultures treated with TGF-beta 1 (TGF-β-a and -b), two HMLE^24+-shSFRP1 cultures treated with the iEMT-cocktail (iEMT-a and -b).” for “passages.”

[4] = system: HMLE^24+ cells; experiment: Proliferation in adherent monolayer cultures after 14 day treatment; settings: after cessation of 14 day treatment
Excerpt: as §2
Proliferation Assays. […] Cell viability was measured using CellTiter-Glo (Promega) according to the manufacturer's instructions.

## TGF-beta 1: recombinant TGF-beta 1 protein, used at 5 ng/ml
[1]; 3 days treatment
  induction of N-Cadherin, Zeb1 or Zeb2: did not result in a significant induction
[1]; 14 day treatment, then expanded without stimulation
  E-/N-Cadherin expression: marginal upregulation of N-Cadherin
[2]
  upregulation of Smad-reporter activity: 1.5 fold
[3]
  increase in mammosphere formation vs untreated control cells: 10 fold
[4]
  proliferation rates in adherent monolayer cultures: stably lower
